Common to all, as to format: biochemical
Assay [1] has as its target T1, IDH1^R132H homodimer enzyme (Homo sapiens, UniProt O75874, R132H).
T1 construct: purchased not specified
Put plainly: NADPH depletion assay, IDH1 R132H. Put shortly: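 IDH1 R132H enzyme (8 nM as diluted) in Tris-HCl pH 7.6 with 10 mM MgCl2, 0.001% Triton X-100 and 4 mM β-mercaptoethanol is preincubated 15 min at RT with compound. Substrate mix (12 uM NADPH, 3.4 mM α-ketoglutarate) is added for 60 min; remaining NAD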

Assay [2] addresses T2, IDH1^R132C (Homo sapiens, UniProt O75874, R132C).
T2 construct: purchased not specified
Put plainly: NADPH depletion assay, IDH1 R132C. The essentials: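 IDH1 R132C (2 nM) preincubated 15 min at RT with compound in Tris-HCl pH 7.6/MgCl2 buffer, then 60 min RT with NADPH and 0.14 mM alpha-ketoglutarate. Remaining NADPH read by diaphorase/resazurin fluorescence (Ex544/Em590).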

Assay [3] has as its target T3, IDH2^R172K (Homo sapiens, UniProt P48735, R172K).
T3 construct: purchased not specified
T3 sequence (P48735 40-452 R172K): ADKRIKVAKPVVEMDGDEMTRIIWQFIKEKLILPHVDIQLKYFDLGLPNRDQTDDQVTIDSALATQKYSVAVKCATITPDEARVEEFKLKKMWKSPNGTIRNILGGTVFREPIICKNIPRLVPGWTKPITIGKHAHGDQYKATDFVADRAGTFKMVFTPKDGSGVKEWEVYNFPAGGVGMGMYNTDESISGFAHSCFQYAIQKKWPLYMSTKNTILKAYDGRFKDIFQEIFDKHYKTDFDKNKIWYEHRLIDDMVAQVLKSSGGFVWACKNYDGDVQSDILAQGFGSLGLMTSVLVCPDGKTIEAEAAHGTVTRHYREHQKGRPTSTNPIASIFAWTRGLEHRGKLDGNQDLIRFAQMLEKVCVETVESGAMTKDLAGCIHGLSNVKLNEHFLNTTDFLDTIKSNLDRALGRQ
Description: NADPH depletion assay, IDH2 R172K. Here is the method: IDH mutated enzyme activity converting alpha-ketoglutarate to 2-hydroxyglutaric acid is measured using a NADPH depletion assay. In the assay the remaining cofactor is measured at the end of the reaction with the addition of a catalytic excess of diaphorase and resazurin, to generate a fluorescent signal in proportion to the amount of NADPH remaining. IDH1 WT enzyme as well as mutated isoforms IDH1^R132H, IDH1^R132C, and IDH^2R172K enzymes are commercially available proteins (see e.g. Sino Biological, Abcam, Active Motif or Creative BioMart).
IDH1^R132H homodimer enzyme are diluted to 8 nM, in 10 μL of Assay Buffer (150 mM NaCl, 50 mM Tris-HCl pH 7.6, 10 mM MgCl2, 0.001% Triton X-100, 4 mM β-mercaptoethanol); 0.2 uL of test compound, previously serially diluted 1 to 3, >10 experimental points from 1 mM in DMSO, is added and the mixture is incubated for 15 minutes at room temperature. The reaction is started with the addition of 10 μL of Substrate Mix (12 uM NADPH, 3.4 mM alpha-ketoglutarate in Assay Buffer) and the mixture is incubated for 60 minutes at room temperature. The reaction is terminated with the addition of 5 μl of Detection Buffer (100 μg/mL diaphorase, 30 μM resazurin, in IX Assay Buffer), and is incubated for 15 minute before reading on a ViewLux as platereader at Ex544/Em590.
Compounds are assayed for their activity against IDH2^R172K following the same assay as above with the following modifications: IDH2^R172K and alpha-ketoglutarate final concentrations in the Assay Buffer is 16 nM and 0.55 mM, respectively.

T2 sequence (O75874 whole entry R132C): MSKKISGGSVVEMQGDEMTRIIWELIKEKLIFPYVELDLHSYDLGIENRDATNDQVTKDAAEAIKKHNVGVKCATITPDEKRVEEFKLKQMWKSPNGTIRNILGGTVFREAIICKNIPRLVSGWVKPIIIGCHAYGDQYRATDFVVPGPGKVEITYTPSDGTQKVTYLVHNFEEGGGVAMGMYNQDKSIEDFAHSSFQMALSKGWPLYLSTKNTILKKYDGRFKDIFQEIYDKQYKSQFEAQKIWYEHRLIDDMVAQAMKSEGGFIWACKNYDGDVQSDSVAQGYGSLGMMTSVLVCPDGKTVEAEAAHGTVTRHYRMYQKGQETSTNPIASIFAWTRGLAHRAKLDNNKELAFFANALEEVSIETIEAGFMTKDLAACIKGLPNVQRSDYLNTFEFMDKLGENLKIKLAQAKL
T1 sequence (O75874 whole entry R132H): as the sequence (O75874 whole entry R132C) above, with C132H counted along it

One may read the IC50 as the concentration that inhibits the measured activity by half. Higher therefore signals weaker potency in that assay. Take `C[C@H](Nc1ncc2ccc(=O)n(CC(C)(C)C)c2n1)c1ccc(Br)cc1` [cpd 34, 2-{[(1S)-1-(4-bromophenyl)ethyl]amino}-8-(2,2-dimethylpropyl)pyrido[2,3-d]pyrimidin-7(8H)-one]: the half-inhibitory concentration (IC50) in assay [1] was determined as 219 nM; in assay [2], 135 nM; in assay [3], 3350 nM.
The matching figures for `C[C@H](Nc1ncc2ccc(=O)n(CC(C)(C)C)c2n1)c1ccc(OC2CCN(C(=O)OC(C)(C)C)CC2)cc1` [cpd 154, 4-(4-{(S)-1-[8-(2,2-Dimethyl-propyl)-7-oxo-7,8-dihydro-pyrido[2,3-d]pyrimidin-2-ylamino]-ethyl}-phenoxy)-piperidine-1-carboxylic acid tert-butyl ester]: 199 nM, 79 nM and 5380 nM.
Regarding `CC(C)Cn1c(=O)ccc2cnc(N[C@@H](C)c3ccc(Cl)cc3)nc21` [cpd 19, 2-{[(1S)-1-(4-chlorophenyl)ethyl]amino}-8-(2-methylpropyl)pyrido[2,3-d]pyrimidin-7(8H)-one], the values for the IC50 in assay [1], in assay [2] and in assay [3] were 410 nM, 203 nM and 6680 nM, respectively.
The like results for `C=CC(=O)N1CCN(c2ccc([C@H](C)Nc3ncc4ccc(=O)n([C@@H](C)C(C)C)c4n3)cc2F)CC1` [cpd 179, 2-({(1S)-1-[4-(4-acryloylpiperazin-1-yl)-3-fluorophenyl]ethyl}amino)-8-[(2S)-3-methylbutan-2-yl]pyrido[2,3-d]pyrimidin-7(8H)-one] were, in that order, 123 nM, 63 nM and 2350 nM.
In the case of `C=CC(=O)N1CCN(C(=O)c2ccc([C@H](C)Nc3ncc4ccc(=O)n(CC)c4n3)cc2)CC1` [cpd 190, 2-{[(1S)-1-{4-[(4-acryloylpiperazin-1-yl)carbonyl]phenyl}ethyl]amino}-8-ethylpyrido[2,3-d]pyrimidin-7(8H)-one], the IC50 in assay [1] was 1940 nM; in assay [2] it was 3600 nM; in assay [3], 679 nM.
As for `C[C@H](Nc1ncc2ccc(=O)n(Cc3ccc(F)c(F)c3)c2n1)c1ccc(Cl)cc1` [cpd 23, 2-{[(1S)-1-(4-chlorophenyl)ethyl]amino}-8-(3,4-difluorobenzyl)pyrido[2,3-d]pyrimidin-7(8H)-one], the IC50 was 2090 nM in assay [1], 891 nM in assay [2] and 3490 nM in assay [3].
As for `COC(=O)C(C)(C)Cn1c(=O)ccc2cnc(N[C@@H](C)c3ccc4ccccc4c3)nc21` [cpd 37, methyl 2,2-dimethyl-3-[2-{[(1S)-1-(naphthalen-2-yl)ethyl]amino}-7-oxopyrido[2,3-d]pyrimidin-8(7H)-yl]propanoate], the figures for the IC50 in assay [1], in assay [2] and in assay [3] were 1480 nM, 805 nM and 4850 nM, respectively.
As for `CC(C)[C@H](C)n1c(=O)ccc2cnc(N[C@@H](C)c3ccc(-c4ccnc(F)c4)cc3)nc21` [cpd 166, 2-({(1S)-1-[4-(2-fluoropyridin-4-yl)phenyl]ethyl}amino)-8-[(2S)-3-methylbutan-2-yl]pyrido[2,3-d]pyrimidin-7(8H)-one], the IC50 in assay [1] was 179 nM; in assay [2], 93 nM; in assay [3], 7570 nM.
The like results for `C[C@H](Nc1ncc2ccc(=O)n(Cc3c(F)cccc3F)c2n1)c1ccc(Cl)cc1` [cpd 31, 2-{[(1S)-1-(4-chlorophenyl)ethyl]amino}-8-(2,6-difluorobenzyl)pyrido[2,3-d]pyrimidin-7(8H)-one] were, in that order, 323 nM, 147 nM and 2200 nM.
Consider `C[C@H](Nc1ncc2ccc(=O)n(CC(F)(F)F)c2n1)c1ccc(CN2CCC(F)(F)CC2)cc1` [cpd 106, 2-{[(1S)-1-{4-[(4,4-difluoropiperidin-1-yl)methyl]phenyl)ethyl]amino)-8-(2,2,2-trifluoroethyl)pyrido[2,3-d]pyrimidin-7(8H)-one], for which the IC50 in assay [1] came out at 1230 nM; in assay [2], 667 nM; in assay [3], 2910 nM.
On to `CC(Nc1ncc2ccc(=O)n(Cc3c(F)cccc3F)c2n1)c1ccc(CN2CCC(F)(F)CC2)cc1` (stereo not drawn) [cpd 98, 8-(2,6-difluorobenzyl)-2-[(1-{4-[(4,4-difluoropiperidin-1-yl)methyl]phenyl}ethyl)amino]pyrido[2,3-d]pyrimidin-7(8H)-one], for which the IC50 in assay [1] worked out at 366 nM; in assay [2], 217 nM; in assay [3] it was 5340 nM.
The matching figures for `C[C@H](Nc1cc2c(ccc(=O)n2CC(C)(C)C)cn1)c1ccc(CN2CCCC(F)(F)C2)cc1` [cpd 235, 7-{(S)-1-[4-(3,3-Difluoro-piperidin-1-ylmethyl)-phenyl]-ethylamino}-1-(2,2-dimethyl-propyl)-1H-[1,6]naphthyridin-2-one]: 128 nM, 48 nM and 5110 nM.
The matching figures for `C[C@H](Nc1ncc2ccc(=O)n(Cc3ccc(OC(F)(F)F)cc3)c2n1)c1ccc(Cl)cc1` [cpd 26, 2-{[(1S)-1-(4-chlorophenyl)ethyl]amino}-8-[4-(trifluoromethoxy)benzyl]pyrido[2,3-d]pyrimidin-7(8H)-one]: 2360 nM, 1260 nM and 2200 nM.
The matching figures for `CC(C)[C@H](C)n1c(=O)ccc2cnc(N[C@@H](C)c3ccc(OC4CCN(C(=O)OCc5ccccc5)CC4)cc3)nc21` [cpd 146, 4-(4-{(S)-1-[8-((S)-1,2-Dimethyl-propyl)-7-oxo-7,8-dihydro-pyrido[2,3-d]pyrimidin-2-ylamino]-ethyl}-phenoxy)-piperidine-1-carboxylic acid benzyl ester]: 59 nM, 16 nM and 1420 nM.
Consider `C[C@H](Nc1ncc2ccc(=O)n(CC(C)(C)C)c2n1)c1ccc(-c2ccsc2)cc1` [cpd 133, 8-(2,2-dimethylpropyl)-2-({(1S)-1-[4-(thiophen-3-yl)phenyl]ethyl}amino)pyrido[2,3-d]pyrimidin-7(8H)-one], for which the IC50 in assay [1] was found to be 218 nM; in assay [2], 141 nM; in assay [3], 5050 nM.
For the molecule `CCCn1c(=O)ccc2cnc(N[C@@H](C)c3ccc(CN4CCC(F)(F)CC4)cc3)nc21` [cpd 101, 2-{[(1S)-1-{4-[(4,4-difluoropiperidin-1-yl)methyl]phenyl}ethyl]amino}-8-propylpyrido[2,3-d]pyrimidin-7(8H)-one], the IC50 in assay [1] worked out at 575 nM; in assay [2], 271 nM; in assay [3], 2670 nM.
In the case of `C=CC(=O)N1CCN(Cc2ccc([C@H](C)Nc3ncc4ccc(=O)n([C@@H](C)CF)c4n3)cc2)CC1` [cpd 198, 2-{[(1S)-1-{4-[(4-acryloylpiperazin-1-yl)methyl]phenyl}ethyl]amino}-8-[(2S)-1-fluoropropan-2-yl]pyrido[2,3-d]pyrimidin-7(8H)-one], the IC50 in assay [1] came out at 132 nM; in assay [2], 401 nM; in assay [3] it was 248 nM.
Consider `C[C@H](Nc1ncc2ccc(=O)n(CC(C)(C)C)c2n1)c1ccc(CN2CCC(F)(F)C2)cc1` [cpd 148, 2-{[(1S)-1-{4-[(3,3-difluoropyrrolidin-1-yl)methyl]phenyl}ethyl]amino}-8-(2,2-dimethylpropyl)pyrido[2,3-d]pyrimidin-7(8H)-one], for which the IC50 was 187 nM in assay [1], 109 nM in assay [2] and 5830 nM in assay [3].

Values taken from patent US12018023B2 (NERVIANO MEDICAL SCIENCES S.R.L., priority 2018, dated 2024).
